Data: patent US4812473A, “1,5-Disubstituted imidazoles as inhibitors of juvenile hormone” (Earth Chemical Co., Ltd., priority 1986, dated 1989)

Experiments:
[1] = test system: 4th-instar household silkworm larvae; experiment: Anti-JH Activity Test II: anti-JH activity value (ED50); type: in vivo, Bombyx mori; settings: 4th-instar larvae, dropwise application
Procedure: (§1) The compound (test preparation) of the present invention diluted with acetone to the predetermined concentration was applied dropwise, in an amount of 1 to 4 μper larva, to the abdomen and the back of third- or fourth-instar larvae (those living for 0 to 8 hours after ecdysis) of household silkworms (Bombyx mori) raised in a room and fed on mulberry leaves. Immediately after treatment, the larvae were placed into a plastics case and reared by being fed on mulberry leaves until they started spinning cocoons. The anti-JH activity was evaluated in terms of the percentage (%) of presence of larvae (premature larvae) which began to spin cocoons at the 4th-instar stage without undergoing the 5th-instar moult. The test larvae treated with each test preparation in each group numbered 20. The test larvae in the control group treated with acetone in lieu of the test compound all commenced cocooning after the 5th-instar moult.
After the test compound diluted to the predetermined concentration was applied dropwise to 4th-instar household silkworm larvae in the same manner as in Anti-JH Activity Test I as described above, the larvae thus treated were reared until they started cocooning. The number of larvae which began to cocoon at the 4th-instar stage without undergoing the 5th-instar moult were counted to determine the percentage (%) of presence of larvae (premature larvae). Then the concentration of test preparation which induced 50% presence was determined and indicated as an anti-JH activity value (ED50).

[2] = test system: anti-JH activity; experiment: Inhibition of the anti-JH activity of the compound of Example 1 by methoprene, a JH-active substance; settings: in vivo
Procedure: Investigation was conducted to determine whether the activity of the foregoing compound of the invention can be inhibited by methoprene which is a JH-active substance. […] [Anti-JH Activity Test II]

[3] = test system: household silkworms (Bombyx mori) larvae; experiment: Anti-JH Activity Test I: activity to induce premature metamorphosis; type: in vivo
Procedure: as §1

Row | Structure (SMILES) | ED50 (anti-JH activity value, 50% presence of premature larvae) [1] [μg/larva] | also measured
1 | CC(C)=CCC/C(C)=C/c1cncn1CCC(C)C [Example 11, 1-isoamyl-5-[(E)-2,6-dimethyl-1,5-heptadienyl]imidazole] | 3.5 | 
2 | CCCCn1cncc1/C=C(\C)CCC=C(C)C [Example 5, 1-butyl-5-[(E)-2,6-dimethyl-1,5-heptadienyl]imidazole] | 3.1 | 
3 | CCCCCCn1cncc1/C=C(\C)CCC=C(C)C [Example 7, 1-hexyl-5-[(E)-2,6-dimethyl-1,5-heptadienyl]imidazole] | 4.2 | 
4 | CC(C)=CCC/C(C)=C/c1cncn1C1CCCC1 [Example 12, 1-cyclopentyl-5-[(E)-2,6-dimethyl-1,5-heptadienyl]imidazole] | 3.6 | 
5 | CCC(C)n1cncc1/C=C(\C)CCC=C(C)C (stereo not drawn) [Example 10, 1-sec-butyl-5-[(E)-2,6-dimethyl-1,5-heptadienyl]imidazole] | 1.9 | 
6 | CC(C)=CCC/C(C)=C/c1cncn1CC(C)C [Example 9, 1-isobutyl-5-[(E)-2,6-dimethyl-1,5-heptadienyl]imidazole] | 1.8 | 
7 | CCCCCn1cncc1/C=C(\C)CCC=C(C)C [Example 6, 1-amyl-5-[(E)-2,6-dimethyl-1,5-heptadienyl]imidazole] | 2.4 | 
8 | CC(C)=CCC/C(C)=C/c1cncn1C [Example 2, 1-methyl-5-[(E)-2,6-dimethyl-1,5heptadienyl]-imidazole] | 17.5 | 
9 | CC(C)=CCC/C(C)=C/c1cncn1C1CCCCC1 [Example 13, 1-cyclohexyl-5-[(E)-2,6-dimethyl-1,5-heptadienyl]imidazole] | 6.6 | 
10 | COC(C)(C)CCC[C@H](C)C/C=C/C(C)=C/C(=O)OC(C)C (racemic) [methoprene] |  | inhibition by methoprene of the activity of the compound of the invention (Example 1) [2]: completely inhibited
11 | CCn1cncc1/C=C(\C)CCC=C(C)C [Example 3, 1-ethyl-5-[(E)-2,6-dimethyl-1,5-heptadienyl]imidazole] | 5.8 | 
12 | CCCn1cncc1/C=C(\C)CCC=C(C)C [Example 4, 1-propyl-5-[(E)-2,6-dimethyl-1,5-heptadienyl]imidazole] | 3.5 | 
13 | CC(C)CCCC(C)Cc1cncn1Cc1ccccc1 (stereo not drawn) [Example 1, 1-benzyl-5-(2,6-dimethylheptyl)imidazole] | 1.4 | Activity to induce premature metamorphosis ([3]; 3rd-instar larvae, dosage 0.5 μg/larva): 10%; Activity to induce premature metamorphosis ([3]; 3rd-instar larvae, dosage 1 μg/larva): 70%; Activity to induce premature metamorphosis ([3]; 3rd-instar larvae, dosage 2 μg/larva): 100%; Activity to induce premature metamorphosis ([3]; 4th-instar larvae, dosage 1 μg/larva): 20%; Activity to induce premature metamorphosis ([3]; 4th-instar larvae, dosage 2 μg/larva): 100%; Activity to induce premature metamorphosis ([3]; 4th-instar larvae, dosage 10 μg/larva): 100%; anti-JH activity (in words) ([3]; conclusion from Table 1): had an anti-JH activity
14 | CC(C)=CCC/C(C)=C/c1cncn1C(C)C [Example 8, 1-isopropyl-5-[(E)-2,6-dimethyl-1,5-heptadienyl]imidazole] | 6.4 | 
